# From patent US20220273590A1, “COMPOUNDS FOR PREVENTION AND TREATMENT OF POST-OPERATIVE COGNITIVE DYSFUNCTION” (ABREXA PHARMACEUTICALS, INC., priority 2019, published 2022)
# Assays:
# [1] = test system: animal model of POCD; assay: Novel Object and Novel Location Recognition (NOR/NLR) after abdominal surgery; format: in vivo, Wistar rats
# Experimental: Male Wistar rats (˜350 g) were randomly divided into 4 experimental groups; non-surgery; control abdominal surgery; surgery+acute J147 treatment (7 mg/rat by gavage, 4-5 hours before surgery); surgery+chronic J147 (500 mg/kg food, 1 week before surgery until the end of the study). Timed blood samples were collected. Days 9-11 post surgery, general behavior (Open field: OF) and cognitive performance (Novel Object/Novel Location Recognition: NOR/NLR; Morris Water Maze: MWM) were tested. Day 14, rats were sacrificed and blood and brain tissue were collected for further analyses. (Neuro)inflammation was examined by circulating cytokine levels and microglia activation in the brain. Abdominal surgery was performed as described previously by Hovens et al., 2014. Rats were anaesthetized using sevoflurane (±2.5% in air/O2=2/1) and received 0.01 mg/kg buprenorphine s.c. A heating blanket was used to preserve body temperature. An incision was made along the linea alba and the intestines were exteriorised. The upper mesenteric artery was isolated from surrounding tissue and clamped for a period of 30 minutes during which the intestines and surgical wound were covered with gauze soaked in saline, to prevent dehydration. During this time the animals were equipped with an indwelling jugular vein catheter to mimic insertion of a venous line in patients and allow timed blood sampling. For that, an incision was made at the subclavical region, the jugular vein was freed from surrounding tissue and a catheter was introduced and advanced into the vena cava, just above the right atrium. The other end of the catheter was guided subcutaneously to the head, and fixated on the skull with dental cement. The catheter was filled with PVP dissolved in heparin solution and closed with a plastic plug. After subsequent removal of the mesenteric artery clamp, the intestines were gently placed back and the abdominal wall and skin were closed separately by sutures. Clamping and reperfusion were visually verified by absence or presence of pulsation in the mesenteric artery distal to the clamp site. From induction to recovery, the procedure takes approximately 60 minutes. Post-operatively, the animals were allowed to recover and subsequently were housed individually. Rats were weighed daily at the last hour of the dark period. Maximal weight loss within the first 5 days post-surgery was taken as measure of experienced severity of surgery. Behavioral tests were performed in the dark (active) period of the rats. The lights were turned on at 9:00 p.m. and off at 9:00 a.m. […] General exploratory behavior and anxiety was tested in the Open field (OF) test; spatial learning, spatial memory and cognitive flexibility in the Morris Water Maze (MWM); spatial working memory in the novel location recognition test (NL); the novel object recognition test (NO) for working memory on object recognition. The Novel Object and Novel Location Recognition were tested in random order in one procedure to assess spatial short term memory and object memory. For this test, an open square box (50×50×40 cm) with 2 transparent and two grey walls was used. Objects used in the test were selected from a pilot study, investigating the preferences of rats for different objects. Rats were habituated to the box for 3 minutes, the day before the test. The test consisted of four phases, each phase took 3 minutes. Between each phase there was a break of 45 seconds in which the rat remained in the test box. The first phase was performed in an empty box, in the second phase two identical objects were placed in both corners at the nearest end of the box. In this phase, the rat was allowed to explore both objects. After this exploration phase either a novel object test or novel location test was performed. Before the start of each phase both objects were removed from the box and cleaned with 70% ethanol. […]
# [2] = test system: animal model of POCD; assay: Overall outcome in the animal model of POCD (abdominal surgery); format: in vivo, Wistar rats
# Experimental: In this study, the effects of J147 in an animal model of POCD were investigated. Male Wistar rats (˜350 g) were randomly divided into 4 experimental groups; non-surgery; control abdominal surgery; surgery+acute J147 treatment (7 mg/rat by gavage, 4-5 hours before surgery); surgery+chronic J147 (500 mg/kg food, 1 week before surgery until the end of the study). Timed blood samples were collected. Days 9-11 post surgery, general behavior (Open field: OF) and cognitive performance (Novel Object/Novel Location Recognition: NOR/NLR; Morris Water Maze: MWM) were tested. Day 14, rats were sacrificed and blood and brain tissue were collected for further analyses. (Neuro)inflammation was examined by circulating cytokine levels and microglia activation in the brain. Within each cohort rats (n=12 per cohort) were equally divided over four experimental groups, including non-surgery, control surgery, surgery+acute J147 and surgery+chronic J147. Half of the non-surgery and control surgery groups received vehicle gavage and served as control for acute treatment. One week before surgery, chronic treatment J147 treatment started and continued until the end of the experiment. […] The first week post-surgery, rats were weighed daily and food intake was measured. […]
smiles,measurement,setting,value
COc1cccc(/C=N/N(C(=O)C(F)(F)F)c2ccc(C)cc2C)c1 [J147],NOR score (novel object preference),"[1]; Surgery + acute J147, n = 12, random = 50%",60 ± 5%
same,Baseline exploration (% time),"[1]; Surgery + acute J147, n = 15, mean ± SEM",23.6 ± 2.3 % time
same,NLR score (novel location preference),"[1]; Surgery + acute J147, n = 15, random = 50%, significantly different from random",61 ± 4%
same,NLR score (novel location preference),"[1]; Surgery + chronic J147, n = 11, random = 50%, significantly different from random",70 ± 6%
same,NOR score (novel object preference),"[1]; Surgery + chronic J147, n = 12, random = 50%, significantly different from random",58 ± 4%
same,Baseline exploration (% time),"[1]; Surgery + chronic J147, n = 15, mean ± SEM",16.8 ± 2.5 % time
same,difference between the groups in preference for the novel or relocated object,[1]; acute and chronic J147 versus control groups,No significant differences
same,NLR test performance versus random,[1]; both treated groups (acute and chronic J147),performed above random
same,NLR performance compared with other groups,[1]; chronically treated rats,performed best in NLR
same,"NOR, effect of treatment",[1]; chronically treated rats,not affected
same,impaired cognitive aspects after surgery,[2]; chronic J147 administration,capable of preventing all impaired cognitive aspects after surgery
same,"conditions after surgery (body weight loss, behavior in the OF)",[2]; chronic treatment,generally improved conditions after surgery
